Results as given in ChEMBL document CHEMBL5325496, “Discovery, SAR Study of GST Inhibitors from a Novel Quinazolin-4(1H)-one Focused DNA-Encoded Library” (J Med Chem, 2023).
pIC50: −log10 of the molar value.

How the values were obtained:
[1] = species: Homo sapiens; assay: Inhibition of glutathione S-transferase (unknown origin) using CDNB as substrate at 50 uM by spectrophotometric analysis relative to control
[2] = molecular target: T1, Glutathione S-transferase Mu 2 (Homo sapiens, UniProt P28161); assay: Inhibition of human GSTM2 by spectrophotometric analysis
T1 sequence (P28161 whole entry): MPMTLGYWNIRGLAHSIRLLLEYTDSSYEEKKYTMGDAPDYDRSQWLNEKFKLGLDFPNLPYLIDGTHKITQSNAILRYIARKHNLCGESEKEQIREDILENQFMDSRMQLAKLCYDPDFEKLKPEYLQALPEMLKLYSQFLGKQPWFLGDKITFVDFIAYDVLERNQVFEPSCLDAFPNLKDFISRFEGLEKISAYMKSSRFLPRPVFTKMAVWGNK

[3] = molecular target: T2, Glutathione-S-transferase (Schistosoma japonicum, UniProt Q26513); assay: Inhibition of Schistosoma japonicum GST by spectrophotometric analysis
T2 sequence (Q26513 whole entry): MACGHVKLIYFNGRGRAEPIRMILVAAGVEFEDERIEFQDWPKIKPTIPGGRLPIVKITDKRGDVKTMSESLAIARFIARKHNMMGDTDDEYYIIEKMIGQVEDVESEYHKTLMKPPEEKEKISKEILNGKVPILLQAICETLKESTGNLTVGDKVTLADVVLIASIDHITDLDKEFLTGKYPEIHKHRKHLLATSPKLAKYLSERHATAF

| Compound | inhibition [1] [%] | pIC50 [2] | pIC50 [3] |
| --- | --- | --- | --- |
| O=c1c2cc(Br)ccc2nc(-c2ccc(Cl)s2)n1Cc1ccc(Cl)cc1 | 20.2 |  |  |
| CS(=O)(=O)c1ccccc1-c1ccc2nc(-c3ccc(Cl)s3)n(Cc3ccc(Cl)cc3)c(=O)c2c1 | 12.9 |  |  |
| O=C(O)c1ccccc1-c1ccc2nc(-c3ccc(Cl)s3)n(Cc3ccc(Cl)cc3)c(=O)c2c1 | 78.7 | < 4.70 | 4.78 |
| O=C(O)CCn1c(-c2ccc(Cl)s2)nc2ccc(-c3ccccc3-c3nn[nH]n3)cc2c1=O | 87.3 | 5.62 | 5.02 |
| O=C(O)CCCn1c(-c2ccc(Cl)s2)nc2ccc(-c3ccccc3-c3nn[nH]n3)cc2c1=O | 76.6 |  |  |
| O=C(O)C(Cc1ccc(Cl)cc1)Cn1c(-c2ccc(Cl)s2)nc2ccc(-c3ccccc3-c3nn[nH]n3)cc2c1=O (stereo not drawn) | 98.8 | 5.69 | 5.81 |
| COC(=O)c1ccccc1-c1ccc2nc(-c3ccc(Cl)s3)n(Cc3ccc(Cl)cc3)c(=O)c2c1 | 24.8 |  |  |
| NC(=O)c1cccc(-c2ccc3nc(-c4ccc(Cl)s4)n(Cc4ccc(Cl)cc4)c(=O)c3c2)c1 | 24.6 |  |  |
| O=C(O)c1cccc(-c2ccc3nc(-c4ccc(Cl)s4)n(Cc4ccc(Cl)cc4)c(=O)c3c2)c1 | 55.6 |  |  |
| O=C(O)c1cc(-c2ccc3nc(-c4ccc(Cl)s4)n(Cc4ccc(Cl)cc4)c(=O)c3c2)ccc1F | 54.4 |  |  |
| CCOC(=O)CCn1c(-c2ccc(Cl)s2)nc2ccc(-c3ccccc3-c3nn[nH]n3)cc2c1=O | 87.5 |  |  |
| COc1cc(/C=C/C(=O)CC(=O)/C=C/c2ccc(O)c(OC)c2)ccc1O [CURCUMIN] |  | 5.74 |  |
| C=C(CC)C(=O)c1ccc(OCC(=O)O)c(Cl)c1Cl [ETHACRYNIC ACID] |  | < 4.70 | 5.74 |

Second part, the molecule after the results:

| inhibition [1] [%] | pIC50 [2] | pIC50 [3] | Compound |
| --- | --- | --- | --- |
| 20.3 |  |  | O=c1c2cc(-c3ccccc3-c3nn[nH]n3)ccc2ncn1Cc1ccc(Cl)cc1 |
| 65.3 |  |  | Cn1nccc1-c1nc2ccc(-c3ccccc3-c3nn[nH]n3)cc2c(=O)n1Cc1ccc(Cl)cc1 |
| 90.8 |  |  | O=c1c2cc(-c3ccccc3-c3nn[nH]n3)ccc2nc(-c2ccc(Cl)s2)n1CCc1ccc(Cl)cc1 |
| 89 | 5.21 | 5.37 | O=c1c2cc(-c3ccccc3-c3nn[nH]n3)ccc2nc(-c2cccs2)n1Cc1ccc(Cl)cc1 |
| 83.6 | 5.47 | 5.05 | O=c1c2cc(-c3ccccc3-c3nn[nH]n3)ccc2nc(-c2ccc(Cl)s2)n1Cc1ccccc1 |
| 92.5 | 5.39 | 5.26 | O=c1c2cc(-c3ccccc3-c3nn[nH]n3)ccc2nc(-c2ccc(Cl)s2)n1Cc1ccc(Cl)cc1 |
| 45.8 |  |  | O=c1c2cc(-c3ccccc3-c3nn[nH]n3)ccc2nc(-c2cccc(Cl)c2)n1Cc1ccc(Cl)cc1 |
